In the supplement of paper PMC10627819:

Columns and labels:
S. pneumoniae D39V [1] = assay: fitness (endpoint OD595 vs no drug) (fraction); higher = more growth
How it was run: (§1)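 Background-subtracted growth curves were the basis for fitness, taken as the optical density at entry into stationary phase over the robust mean of no-drug control wells. A cap of 1 was applied. The curves came from OD595 readings every 30 min for 14 h at 37 °C, in 384-well plates seeded at OD595 0.01 with 30 µl, or 55 µl for S. pneumoniae.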

B. subtilis 168 [2] = assay: as above
How it was run: as §1

S. pneumoniae D39V [3] = assay: Bliss interaction score (quartile over a dose matrix) (fitness difference); higher = more antagonism (negative = synergy)
How it was run: (§2)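 Fitness is OD595 at stationary-phase entry relative to the plate's robust no-drug mean, capped at 1. Single-drug fitness was inferred from combinations. The Bliss score is observed minus product-expected fitness, summarised by quartiles over technical, biological and donor/recipient replicates.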

S. aureus Newman = assay: as above
How it was run: as §2

B. subtilis 168 [4] = assay: as above
How it was run: as §2

S. aureus DSM 20231 = assay: as above
How it was run: as §2
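Throughout, for Bliss interaction score (quartile over a dose matrix): first quartile when negative (synergy) and third quartile when positive (antagonism).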

CN(C)C(=O)C(CCN1CCC(O)(c2ccc(Cl)cc2)CC1)(c1ccccc1)c1ccccc1 [Loperamide] + CCN(CC)CCOC(=O)c1ccc(N)cc1 [Procaine]
fitness
Settings	partner 85.5 µg/mL	partner 171 µg/mL	partner 342 µg/mL
B. subtilis 168 [2], first compound 25 µg/mL	0.801	0.84	0.763
B. subtilis 168 [2], first compound 50 µg/mL	0.0504	0.0536	0.051
B. subtilis 168 [2], first compound 100 µg/mL	0.0164	0.016	0.052
S. pneumoniae D39V [1], first compound 17.14 µg/mL	0.941	0.905	0.903
S. pneumoniae D39V [1], first compound 34.28 µg/mL	0.97	0.853	0.923

fitness, S. pneumoniae D39V [1], one replicate
Settings	first compound 20 µg/mL	first compound 40 µg/mL	first compound 68.57 µg/mL	first compound 80 µg/mL
partner 85.5 µg/mL	≥ 1	≥ 1	0.919	0.999
partner 171 µg/mL	≥ 1	≥ 1	0.874	≥ 1
partner 342 µg/mL	≥ 1	0.986	0.88	≥ 1

Settings	Bliss interaction score
B. subtilis 168 [4]	-0.0865
S. aureus DSM 20231	0.127
S. aureus Newman	0.0372
S. pneumoniae D39V [3]	-0.0548

CN(C)C(=O)C(CCN1CCC(O)(c2ccc(Cl)cc2)CC1)(c1ccccc1)c1ccccc1 [Loperamide] + CN1C2=CC=CC=C2N=C3C1=CC=CC3=O [Pyocyanin]
Settings	fitness
B. subtilis 168 [2], first compound 25 µg/mL, partner 1.25 µg/mL	0.819
B. subtilis 168 [2], first compound 25 µg/mL, partner 2.5 µg/mL	0.78
B. subtilis 168 [2], first compound 25 µg/mL, partner 5 µg/mL	0.632
B. subtilis 168 [2], first compound 50 µg/mL, partner 5 µg/mL	0.215
B. subtilis 168 [2], first compound 100 µg/mL, partner 1.25 µg/mL	0.062
B. subtilis 168 [2], first compound 100 µg/mL, partner 2.5 µg/mL	0.0311
B. subtilis 168 [2], first compound 100 µg/mL, partner 5 µg/mL	0.0308
S. pneumoniae D39V [1], first compound 17.14 µg/mL, partner 0.325 µg/mL	≥ 1
S. pneumoniae D39V [1], first compound 17.14 µg/mL, partner 0.65 µg/mL	0.984
S. pneumoniae D39V [1], first compound 17.14 µg/mL, partner 1.3 µg/mL	0.797
S. pneumoniae D39V [1], first compound 34.28 µg/mL, partner 0.325 µg/mL	0.993
S. pneumoniae D39V [1], first compound 34.28 µg/mL, partner 0.65 µg/mL	0.945
S. pneumoniae D39V [1], first compound 34.28 µg/mL, partner 1.3 µg/mL	0.729

fitness, S. pneumoniae D39V [1], one replicate
Settings	first compound 20 µg/mL	first compound 40 µg/mL	first compound 68.57 µg/mL	first compound 80 µg/mL
partner 0.325 µg/mL	≥ 1	≥ 1	≥ 1	≥ 1
partner 0.65 µg/mL	≥ 1	≥ 1	0.964	0.995
partner 1.3 µg/mL	–	–	0.748	–

Settings	Bliss interaction score
B. subtilis 168 [4]	0.103
S. aureus DSM 20231	-0.0519
S. aureus Newman	-0.0463
S. pneumoniae D39V [3]	0.0757

CN(C)C(=O)C(CCN1CCC(O)(c2ccc(Cl)cc2)CC1)(c1ccccc1)c1ccccc1 [Loperamide] + CN(C)c1cc(NC(=O)CNC(C)(C)C)c(O)c2c1C[C@H]1C[C@H]3[C@H](N(C)C)C(O)=C(C(N)=O)C(=O)[C@@]3(O)C(O)=C1C2=O [Tigecycline]
fitness
Settings	first compound 17.14 µg/mL	first compound 20 µg/mL	first compound 25 µg/mL	first compound 34.28 µg/mL	first compound 40 µg/mL	first compound 50 µg/mL	first compound 80 µg/mL	first compound 100 µg/mL
B. subtilis 168 [2], partner 0.039 µg/mL	–	–	0.894	–	–	0.132	–	0.0203
B. subtilis 168 [2], partner 0.078 µg/mL	–	–	0.832	–	–	0.0334	–	0.0305
B. subtilis 168 [2], partner 0.156 µg/mL	–	–	0.825	–	–	0.0355	–	0.0215
S. pneumoniae D39V [1], partner 0.65 µg/mL	0.945	0.995	–	0.993	0.991	–	0.0427	–
S. pneumoniae D39V [1], partner 1.3 µg/mL	≥ 1	0.931	–	0.991	0.977	–	0.0494	–
S. pneumoniae D39V [1], partner 2.6 µg/mL	≥ 1	0.944	–	0.98	0.995	–	0.0611	–

fitness, one replicate
Settings	partner 0.125 µg/mL	partner 0.25 µg/mL	partner 0.5 µg/mL	partner 0.65 µg/mL	partner 1.3 µg/mL	partner 2.6 µg/mL
B. subtilis 168 [2], first compound 25 µg/mL	0.978	0.884	0.858	–	–	–
B. subtilis 168 [2], first compound 50 µg/mL	0.327	0.22	0.272	–	–	–
B. subtilis 168 [2], first compound 100 µg/mL	0.67	0.512	0.67	–	–	–
S. pneumoniae D39V [1], first compound 68.57 µg/mL	–	–	–	≥ 1	≥ 1	≥ 1

Settings	Bliss interaction score
B. subtilis 168 [4]	0.115
S. aureus DSM 20231	-0.115
S. aureus Newman	0.0321
S. pneumoniae D39V [3]	0.084

CN(C)C(=O)C(CCN1CCC(O)(c2ccc(Cl)cc2)CC1)(c1ccccc1)c1ccccc1 [Loperamide] + CN(N=O)C(=O)N[C@@H](C=O)[C@@H](O)[C@H](O)[C@H](O)CO [Streptozotocin]
fitness, S. pneumoniae D39V [1]
Settings	partner 1.2 µg/mL	partner 2.4 µg/mL	partner 4.8 µg/mL
first compound 17.14 µg/mL	0.962	0.943	0.974
first compound 34.28 µg/mL	0.956	0.982	0.978

fitness, one replicate
Settings	first compound 20 µg/mL	first compound 25 µg/mL	first compound 40 µg/mL	first compound 50 µg/mL	first compound 68.57 µg/mL	first compound 80 µg/mL	first compound 100 µg/mL
B. subtilis 168 [2], partner 0.15 µg/mL	–	0.843	–	0.0229	–	–	0.0221
B. subtilis 168 [2], partner 0.3 µg/mL	–	0.802	–	0.0269	–	–	0.0127
B. subtilis 168 [2], partner 0.6 µg/mL	–	0.821	–	0.025	–	–	0.02
S. pneumoniae D39V [1], partner 1.2 µg/mL	≥ 1	–	≥ 1	–	0.971	0.0146	–
S. pneumoniae D39V [1], partner 2.4 µg/mL	≥ 1	–	≥ 1	–	0.929	0.0167	–
S. pneumoniae D39V [1], partner 4.8 µg/mL	≥ 1	–	≥ 1	–	≥ 1	0	–

Settings	Bliss interaction score
B. subtilis 168 [4]	-0.0219
S. aureus DSM 20231	0.103
S. aureus Newman	0.0514
S. pneumoniae D39V [3]	0.0707

CN(C)C(=O)C(CCN1CCC(O)(c2ccc(Cl)cc2)CC1)(c1ccccc1)c1ccccc1 [Loperamide] + CN[C@@H]1[C@H](O)[C@H](NC)[C@H]2O[C@@]3(O)C(=O)C[C@@H](C)O[C@H]3O[C@@H]2[C@H]1O [Spectinomycin]
fitness
Settings	partner 2 µg/mL	partner 4 µg/mL	partner 8 µg/mL	partner 16 µg/mL
B. subtilis 168 [2], first compound 25 µg/mL	0.812	0.78	0.566	–
S. pneumoniae D39V [1], first compound 17.14 µg/mL	–	0.983	0.974	0.93
S. pneumoniae D39V [1], first compound 34.28 µg/mL	–	0.994	0.909	0.929

fitness, S. pneumoniae D39V [1], one replicate
Settings	first compound 20 µg/mL	first compound 40 µg/mL	first compound 68.57 µg/mL	first compound 80 µg/mL
partner 4 µg/mL	≥ 1	≥ 1	≥ 1	0.977
partner 8 µg/mL	≥ 1	≥ 1	≥ 1	0.966
partner 16 µg/mL	–	–	0.983	–

Settings	Bliss interaction score
B. subtilis 168 [4]	0.354
S. aureus DSM 20231	0.104
S. aureus Newman	-0.103
S. pneumoniae D39V [3]	0.126
